Reference: patent publication US20240261268A1, “METHODS OF SLOWING AN INCREASE IN BRAIN VENTRICULAR VOLUME” (VANDA PHARMACEUTICALS INC., priority 2022, published 2024)

Columns and labels:
[1] = test system: adult subjects with relapsing MS; test: Phase III study: premature treatment discontinuation and deaths; assay type: in vivo
Protocol: A total of 1468 subjects were screened. Of those, 1133 subjects were randomized (567 to ponesimod 20 mg and 566 to teriflunomide 14 mg) across 162 sites in 28 countries, and 1131 subjects received at least one dose of study drug. The disposition of subjects is summarized in Table 1 and a summary of reasons (primary reason) for treatment discontinuation are shown in Table 2. Overall treatment and study discontinuation were balanced across both treatment arms. A total of 6.5% and 2.5% of the subjects discontinued due to AEs or tolerability related reasons in ponesimod 20 mg and teriflunomide 14 mg, respectively, while 1.9% and 4.3% discontinued due to efficacy related reasons. There were 2 deaths reported during the study—both on teriflunomide 14 mg.

[2] = test system: adult subjects with relapsing MS; test: Phase III study ponesimod 20 mg vs teriflunomide 14 mg: treatment-emergent adverse events (Safety Set)
Protocol: A prospective, multicenter, randomized, double-blind, active controlled, parallel-group, phase III, superiority study was conducted.
The treatment period consisted of an up-titration period (from Day 1 to 14) and a maintenance period (Day 15 until EOT).
To reduce the first-dose effect of ponesimod, an up-titration scheme was implemented from Day 1 to Day 14: • Days 1 and 2; 2 mg. • Days 3 and 4; 3 mg. • Days 5 and 6; 4 mg. • Day 7; 5 mg. • Day 8; 6 mg. • Day 9; 7 mg. • Day 10; 8 mg. • Day 11; 9 mg. • Days 12, 13, and 14; 10 mg. • Day 15 until EOT; 20 mg.
The Safety Set (SAF) included all randomized subjects who received at least one dose of study treatment. Subjects were analyzed based on actual treatment taken, not randomized treatment.

[3] = test system: adult subjects with relapsing MS; test: MRI-based scaled brain ventricular volume (lateral + 3rd ventricle / ICV); assay type: in vivo, human
Excerpt: Efficacy variable/timepoint: The endpoint was increase in ventricular volume up to the end of study (EOS). All available data up to EOS, regardless of treatment discontinuation was included (ITT approach).
Ventricular Volume (VV) data were obtained from MRI images from patients that participated in the OPTIMUM study. Data were obtained from those patients who had MRI imagines at baseline week 60 and week 108. One pre-requisite was to select only those patients who had all images completed.
Ventricular volume was estimated from MRI images collected at baseline (BL), week 60 and week 108 for 428 subjects treated with ponesimod and 427 with teriflunomide. Lesions were identified using T2-weighted and Proton Density (PD) MRIs. Ventricles were segmented using lesion-filled T1 images using with the longitudinal stream in FreeSurfer 7. For each subject, scaled ventricular volume (V) was computed as the sum of lateral and 3rd ventricle volumes divided by the intracranial volume (ICV) and expressed as a percentage. Average V (V) and average change in V (ΔV) from baseline at weeks 60 and 108 were compared across treatment arms. Ventricular volumes were correlated with Multiple Sclerosis Functional Composite (MSFC), Paced Auditory Serial Addition Test (PASAT), Average Timed 25 Foot Walk (T25FW), Average 9-Hole Peg Test (9-HPT), Single Digit Modality Test (SDMT), FSIQ-RMS and Expanded Disability Score (EDSS).

[4] = test system: adult subjects with relapsing MS; test: 12-lead ECG heart rate and first-dose monitoring on Day 1; assay type: in vivo, human
Protocol: The incidence of treatment-emergent heart rate and rhythm (including hypotension) AESIs on Day 1 was higher in the ponesimod 20 mg arm (2.1%) than in the teriflunomide 14 mg arm (0.4%). However, the overall incidence of first dose AESI on Day 1 was low (2.1%) in ponesimod. None of these events were serious nor led to permanent discontinuation of study treatment. Discharge criteria at 4 hours post-dose were met for ca. 99% of subjects. […] ECG HR effect: nadir at 2 hours post-dose (siponimod—3-4 hours, fingolimod—around by 6 hours). Low incidence of low HR outliers (post-dose HR≤40 bpm), all 3 of them with a pre-treatment HR of <55 bpm, which is a known risk factor for post-dose bradycardia with SIP receptor modulators.
The mean heart rate reduction compared to pre-dose reached a maximum for ponesimod 20 mg at 2-hours post dose, −8.7 bpm compared to −1.7 bpm for teriflunomide 14 mg (FIG. 2).

[5] = ponesimod 20 mg N=565, teriflunomide 14 mg N=566, Safety Set
[6] = ponesimod 20 mg, teriflunomide 14 mg
[7] = Day 1, ponesimod N=565, teriflunomide N=566, Safety Set
[8] = treatment-emergent, ponesimod 20 mg N=565, teriflunomide 14 mg N=566, Safety Set
[9] = week 60 and week 108 vs baseline, ponesimod n=428, teriflunomide n=427

## CCC/N=C1\S/C(=C\c2ccc(OC[C@H](O)CO)c(Cl)c2)C(=O)N1c1ccccc1C [ponesimod, (R)-5-[3-chloro-4-(2,3-dihydroxy-propoxy)-benz[Z]ylidene]-2-([Z]-propylimino)-3-o-tolyl-thiazolidin-4-one]
[1]; [5]
  Premature discontinuation: Death: 0 n
[1]; [6]
  Subjects discontinued due to AEs or tolerability related reasons: 6.5%
[2]; Day 1, ponesimod 20 mg arm, teriflunomide 14 mg arm
  Incidence of treatment-emergent heart rate and rhythm (including hypotension) AESIs on Day 1: 2.1%
[2]; [7]
  AESI effect on heart rate and rhythm (including hypotension) on Day 1: Subjects with at least one AE: 12(2.1) n (%)
  AESI heart rate and rhythm on Day 1, PT: Atrioventricular block first degree: 3(0.5) n (%)
  AESI heart rate and rhythm on Day 1, PT: Bradycardia: 4(0.7) n (%)
  AESI heart rate and rhythm on Day 1, PT: Bundle branch block left: 1(0.2) n (%)
  AESI heart rate and rhythm on Day 1, PT: Bundle branch block right: 1(0.2) n (%)
  AESI heart rate and rhythm on Day 1, PT: Defect conduction intraventricular: 2(0.4) n (%)
  AESI heart rate and rhythm on Day 1, PT: Electrocardiogram QT prolonged: 0 n (%)
  AESI heart rate and rhythm on Day 1, PT: Presyncope: 0 n (%)
  AESI heart rate and rhythm on Day 1, PT: Sinus arrhythmia: 1(0.2) n (%)
  AESI heart rate and rhythm on Day 1, PT: Sinus bradycardia: 1(0.2) n (%)
[2]; only if serious or severe, ponesimod 20 mg N=565, teriflunomide 14 mg N=566, Safety Set
  Treatment-emergent AESI: Infection: 9(1.6) n (%)
[2]; [5]
  TEAEs leading to premature discontinuation of study drug: Subjects with at least one AE: 49(8.7) n (%)
  TEAEs leading to premature discontinuation, SOC: Blood and lymphatic system disorders: 3(0.5) n (%)
  TEAEs leading to premature discontinuation, SOC: Cardiac disorders: 1(0.2) n (%)
  TEAEs leading to premature discontinuation, SOC: Eye disorders: 5(0.9) n (%)
  TEAEs leading to premature discontinuation, SOC: Gastrointestinal disorders: 4(0.7) n (%)
  TEAEs leading to premature discontinuation, SOC: General disorders and administration site conditions: 3(0.5) n (%)
  TEAEs leading to premature discontinuation, SOC: Hepatobiliary disorders: 3(0.5) n (%)
  TEAEs leading to premature discontinuation, SOC: Investigations: 12(2.1) n (%)
  TEAEs leading to premature discontinuation, SOC: Musculoskeletal and connective tissue disorders: 1(0.2) n (%)
  TEAEs leading to premature discontinuation, SOC: Neoplasms benign, malignant and unspecified (incl cysts and polyps): 1(0.2) n (%)
  TEAEs leading to premature discontinuation, SOC: Nervous system disorders: 2(0.4) n (%)
  TEAEs leading to premature discontinuation, SOC: Pregnancy, puerperium and perinatal conditions: 3(0.5) n (%)
  TEAEs leading to premature discontinuation, SOC: Psychiatric disorders: 1(0.2) n (%)
  TEAEs leading to premature discontinuation, SOC: Reproductive system and breast disorders: 0 n (%)
  TEAEs leading to premature discontinuation, SOC: Respiratory, thoracic and mediastinal disorders: 7(1.2) n (%)
  TEAEs leading to premature discontinuation, SOC: Skin and subcutaneous tissue disorders: 1(0.2) n (%)
  TEAEs leading to premature discontinuation, SOC: Social circumstances: 2(0.4) n (%)
  TEAEs leading to premature discontinuation, SOC: Surgical and medical procedures: 0 n (%)
  TEAEs leading to premature discontinuation, SOC: Vascular disorders: 3(0.5) n (%)
  Treatment-emergent AESI: Effect on heart rate and rhythm (including hypotension): 29(5.1) n (%)
  Treatment-emergent AESI: Hepatobiliary disorders/Liver enzyme abnormality: 145(25.7) n (%)
  Treatment-emergent AESI: Herpetic infection: 27(4.8) n (%)
  Treatment-emergent AESI: Hypertension: 57(10.1) n (%)
  Treatment-emergent AESI: Macular edema: 6(1.1) n (%)
  Treatment-emergent AESI: Non-skin malignancy: 1(0.2) n (%)
  Treatment-emergent AESI: Pulmonary events: 45(8.0) n (%)
  Treatment-emergent AESI: Seizure: 8(1.4) n (%)
  Treatment-emergent AESI: Skin malignancy: 5(0.9) n (%)
[2]; [6]
  AESI category hepatobiliary disorders/liver enzyme abnormality: 25.7%
  AESI category hypertension: 10.1%
  AESI category pulmonary events: 8.0%
  Proportion of subjects who experienced at least one SAE: 8.7%
  Proportion of subjects who experienced at least one TEAE: 88.8%
  TEAE: ALT increased: 19.5%
  TEAE: headache: 11.5%
  TEAE: nasopharyngitis: 19.3%
  TEAE: upper respiratory tract infection: 10.6%
  TEAEs leading to premature treatment discontinuation: 8.7%
[2]; [8]
  Subjects with at least one AE: 502(88.8) n (%)
  Subjects with at least one AE leading to study drug discontinuation: 49(8.7) n (%)
  Subjects with at least one Drug-Related AE: 278(49.2) n (%)
  Subjects with at least one Fatal AE: 0 n (%)
  Subjects with at least one Serious AE: 49(8.7) n (%)
  Subjects with at least one Severe AE: 39(6.9) n (%)
[3]; week 60
  Rate of increase in ventricular volume lower compared to teriflunomide: 60%
[3]; week 60, p<0.001
  Difference in ventricular volume increase, ponesimod minus teriflunomide (Δ60V^pon−Δ60V^ter): −0.025%
[3]; week 60, p<0.001 vs baseline, ponesimod n=428, teriflunomide n=427
  Average change in scaled ventricular volume from baseline (Δ60V), percentage of ICV: 0.026%
[3]; [9]
  Reduction of atrophy compared to teriflunomide (FIGS. 4-6; 3rd and lateral ventricle): greater
  Ventricular enlargement compared to teriflunomide (FIG. 3): less
[3]; week 108
  Rate of increase in ventricular volume lower compared to teriflunomide: 45%
[3]; week 108, p<0.001
  Difference in ventricular volume increase, ponesimod minus teriflunomide (Δ108V^pon−Δ108V^ter): 0.043%
[3]; week 108, p<0.001 vs baseline, ponesimod n=428, teriflunomide n=427
  Average change in scaled ventricular volume from baseline (Δ108V), percentage of ICV: 0.067%
[4]; Day 1, 2 hours post dose, 12-lead ECG
  Mean heart rate reduction compared to pre-dose (maximum): −8.7 bpm
[4]; Day 1, first dose
  2nd or higher degree AV block: No 2nd or higher degree AV block was observed
  ECG HR effect: time of nadir / maximum mean heart rate reduction post-dose: 2 h
  Subjects meeting discharge criteria at 4 hours post-dose: ca. 99%
[4]; Day 1, all had pre-treatment HR <55 bpm
  Subjects with asymptomatic post-dose HR≤40 bpm: 3 subjects
